One data set in a line: Thermal stability. It counts as physicochemical. Conditions: stable up to and including this temperature.
A short description of data set [1]: Solubility in organic solvents. It counts as physicochemical.

The record followed here is patent US8389744B1, “TTPO (5 6,7-trithiapentacene-13-one) and its derivatives: a new class of thermally stable, photooxidatively resistant organic semiconductors” (University of New Hampshire, priority 2011, dated 2013).

Turning to `O=C1c2cc3ccccc3c3c2C2=S(S3)Sc3c2c1cc1ccccc31` [TTPO, 5,6,7-Trithiapentacene-13-one], the thermal stability in “Thermal stability” is not above 450 °C. For the same compound, the solubility result in data set [1] is “soluble in a variety of organic solvents”.
